In patent US20040202713A1, “Means and method for hormonal contraception” (priority 2001, published 2004):

What was measured:
women [1] = assay: Clinical study with dydrogesterone as progestogen-only preparation (Example 3); type: in vivo, human; conditions: 20 mg dydrogesterone once a day, uninterrupted for 4 months, 8 women
Method: A clinical study with dydrogesterone as a progestogen-only preparation is conducted in 8 women who were selected on the basis of the criteria mentioned in Example 1. The 8 women receive a 20 mg dosage of dydrogesterone once a day, uninterruptedly during a period of 4 months.

women [2] = assay: Clinical study in contraception, combined ethinyl estradiol/dydrogesterone regimen (Example 2); type: in vivo, human; conditions: 30 μg ethinyl estradiol + 20 mg dydrogesterone daily for 24 days, then 4 days placebo; 8 women
Method: A clinical study in contraception is conducted in 8 women, who were selected on the basis of the criteria mentioned in Example 1, using 30 μg ethinyl estradiol and 20 mg dydrogesterone. The aforementioned dose is administered on a daily basis during 24 days, followed by a hormone-free period placebo's) of 4 days.

young healthy women = assay: Clinical study in contraception, sequential regimen (Example 1): vaginal ultrasonography, endogenous hormones, bleeding pattern; type: in vivo, human; conditions: 2 mg 17beta-estradiol days 1-14, then 10 mg dydrogesterone + 2 mg 17beta-estradiol days 15-28, single cycle
Source text: Women who participated ill the study described in this example were all selected on the basis that they were users of ‘high’ dose monophasic ethinyl estradiol-containing combined oral contraceptives. The reasons for applying this selection criterion was that there is a dose relationship between follicular development and ethinyl estradiol whether given alone or in combination with a progestogen, i.e. less follicular development in the presence of the higher dose. Participation of the females involved in the study started at a moment of (almost) complete suppression of follicular development. This condition is not met if a person has their first day of bleeding in a natural cycle, after a tablet-free interval, or immediately after a low-dose combined oral contraceptive. A clinical study in contraception was conducted in 9 young healthy women who previously used a monophasic oral contraceptive pill with at least 30 microgram of ethinyl estradiol. The women were administered 2 mg 17beta-estradiol during days 1-14 of the cycle. From days. 15 to 28 of the cycle 10 mg dydrogesterone combined with 2 mg 17beta-estradiol was administered. The participants were followed by vaginal ultrasonography and blood sampling for endogenous hormones to assess ovarian function (ovulation-inhibition). Vaginal bleeding pattern and feeling of well being were scored by the participants.

[3] = hormone replacement therapy with 17beta-estradiol dydrogesterone (Grisar et al. 1999); cited from earlier work
humans = conditions: reported by Claassen et al., Acta Endocrinologica (1967); cited from earlier work
[4] = compared with commercially used synthetic progestogens; cited from earlier work

CC(=O)[C@H]1CC[C@H]2[C@@H]3C=CC4=CC(=O)CC[C@@]4(C)[C@@H]3CC[C@]12C [dydrogesterone, 9β,10α-pregna-4,6-diene-3,20-dione]
Irregular bleeding (women [1]): some unpredictable irregular bleeding
Menstrual flow (women [1]): reduction of the usual menstrual flow
Ovulation inhibition (women [1]): Ovulation is inhibited
Ovulation inhibition (women [2]): ovulation inhibition is achieved
Withdrawal bleeding (women [2]): Regular withdrawal bleeding occurs in all women
Ovulation inhibition (subjects with inhibition) (young healthy women; 9 women): 7 of the 9
Intermenstrual bleeding (young healthy women; scored by participants): No intermenstrual bleeding was observed
Adverse effects on blood pressure [3]: no adverse effects on blood pressure
Ovulation inhibition in humans (humans): does not inhibit ovulation in humans
Estrogenic, glucocorticoid, anabolic or androgenic properties [4]: does not exhibit estrogenic, glucocorticoid, anabolic or androgenic properties
